Key:
BY4741 WT cells = assay: Respiratory growth of wild type yeast with copper chelator BCS; type: cell-based, Saccharomyces cerevisiae; conditions: 10 nM ES co-treatment with 20 μM BCS
Protocol: The cell density was measured spectrophotoretrically at the indicated time points at 600 nm. The data are representative of two independent experiments.

yeast ccc2Δ = assay: Respiratory growth rescue of ccc2Δ yeast; type: cell-based, Saccharomyces cerevisiae; conditions: non-fermentable media, 37° C.
Protocol: Yeast Strains and Culture Conditions. The authenticity of yeast strains was confirmed by PCR as well as by replica plating on dropout plates. Yeast cells were cultured in standard YP growth media including YPD (1% yeast extract, 2% peptone and 2% glucose), YPGal (2% galactose), YPGE (3% glycerol+1% ethanol), or synthetic media (SC glucose). For qualitative growth measurement, 10-fold serial dilutions of overnight cultures were spotted on YPD or YPGE plates and incubated at 30° C. and 37° C. for the indicated period. Growth in liquid media was measured spectrophotometrically at 600 nm.
ES Rescues Many Different Yeast Mutants with Impaired Copper Metabolism. To test the specificity of ES mediated rescue, a number of yeast mutants of genes required for maintaining cellular and mitochondrial copper homeostasis were shortlisted. Genes were prioritized based on their evolutionary conservation, presence of pathogenic mutations in humans, and/or the existence of a related mouse phenotype (Table 3, shown below). […] Most of the yeast mutants were rescued with ES supplementation, albeit to different degrees, reflecting their distinct roles in cellular and mitochondrial copper homeostasis. […]

control MEFs = assay: COX1 levels in control mouse embryonic fibroblasts (toxicity); type: cell-based; conditions: higher doses of ES
Protocol: Mammalian Cell Culture. The human control MCH46 and SCO2 patient fibroblasts as well as the rat H9c2 control and Ctr1^−/− cardiomyocytes were cultured in high glucose Dulbecco's modified Eagle's medium (DMEM) supplemented with 10% fetal bovine serum (Sigma) and 1 mM sodium pyruvate (Life Technologies). The mouse embryonic fibroblasts were cultured in DMEM 10% FBS, 1 mM sodium pyruvate, 1× minimum essential medium non-essential amino acids (MEM NEAA; Life Technologies 11140), 50 μg/mL uridine, and 1× Pen Strep Glutamine (Life Technologies 10378). All cell lines were cultured under 5% CO2 at 37° C. and were treated with indicated concentrations of ES for 3-6 days before harvesting. Whole cell protein was extracted in lysis buffer (BP-115, Boston BioProducts) supplemented with protease inhibitor cocktail (Roche Diagnostics) and the protein concentrations were determined by BCA assay (Thermo Scientific).
Immunoblotting and In-gel Activities. Sodium dodecyl sulfate polyacrylamide gel electrophoresis (SDS-PAGE) and Blue Native PAGE (BN-PAGE) were performed to separate denatured and native protein complexes, respectively. For SDS-PAGE, mitochondrial lysate ([…]) was separated on NuPAGE 4-12% Bis-Tris gels (Life Technologies, Carlsbad, CA). For BN-PAGE, yeast mitochondria were solubilized in buffer containing 1% digitonin (Life Technologies) by incubating for 15 min at 4° C. […]

[1] = test system: immortalized control (MCH46) and SCO2 patient fibroblasts, primary human skin fibroblasts (MW28); assay: Cell viability of human fibroblasts (total cellular ATP, Cell-Titre GLo); type: cell-based
Protocol: FIGS. 5A and 5B illustrate cell viability of immortalized and primary human fibroblasts cell lines treated with increasing concentrations of elesclomol. […] Cell viability was measured by quantifying total cellular ATP levels by Cell-Titre GLo assay (Promega). Data are expressed as mean±SD (n=3).
ES Supplementation Rescues Levels of CcO Subunits in Mammalian Cell Lines with Genetic Defects in Copper Metabolism. To expand upon the findings in yeast and to test the efficacy of ES in mammalian cell culture models of copper deficiency, a Ctr1 knockout rat H9c2 cardiomyocyte cell line was constructed. […] As expected, the loss of Ctr1 led to a ˜4-fold decrease in the levels of intracellular copper (FIG. 4A) and a concomitant reduction in the levels of the CcO subunitCOX1 and superoxide dismutase, SOD1 (FIG. 4B). This validated Ctr1^−/− cell line was used to test the efficacy of ES in rescuing COX1, a copper-containing subunit of CcO and SOD1, superoxide dismutase, another copper-containing enzyme SOD1. […] Finally, the efficacy of ES in rescuing CcO defects in SCO2 patient fibroblasts that were previously shown to have a COX2 deficiency was tested.

[2] = test system: Ctr1^−/− zebrafish embryos; assay: Pigmentation defect in embryos from Ctr1 heterozygous zebrafish crosses; type: in vivo
Protocol: (§1) Zebrafish Experiments. […] Morpholino-based experiments were performed.
ES Supplementation Rescues Copper Deficiency Phenotypes in Zebrafish Models. To determine whether ES can rescue phenotypes associated with copper deficiency in an intact developing vertebrate animal model, zebrafish embryos with a null mutation in the gene encoding the plasma membrane copper importer Ctr1 were utilized. Zebrafish were chosen because of the ability to quickly monitor the pigmentation defect that arises due to the copper requirement of tyrosinase, an enzyme that catalyzes the critical step in melanin biosynthesis. Wild type zebrafish embryos have a characteristic melanin pigmentation pattern visible at 48 hpf. […] […] To determine whether ES can rescue the observed CcO assembly defect, clutches of embryos were grown from heterozygous Ctr1 crosses in the presence of ES until 10 dpf and levels of Cox1 in their mitochondrial extracts were measured.

Ctr1^−/− zebrafish = assay: Cox1 levels in mitochondrial extracts of Ctr1 mutant zebrafish; type: in vivo; conditions: grown in the presence of ES until 10 dpf
Protocol: as §1
ES Supplementation Rescues Copper Deficiency Phenotypes in Zebrafish Models. To determine whether ES can rescue phenotypes associated with copper deficiency in an intact developing vertebrate animal model, zebrafish embryos with a null mutation in the gene encoding the plasma membrane copper importer Ctr1 were utilized. Zebrafish were chosen because of the ability to quickly monitor the pigmentation defect that arises due to the copper requirement of tyrosinase, an enzyme that catalyzes the critical step in melanin biosynthesis. Wild type zebrafish embryos have a characteristic melanin pigmentation pattern visible at 48 hpf. To determine if ES can rescue copper deficiency phenotypes in zebrafish, zebrafish embryos from heterozygous Ctr1 crosses in 10 nM ES were incubated and compared to untreated embryos. […] To determine whether ES can rescue the observed CcO assembly defect, clutches of embryos were grown from heterozygous Ctr1 crosses in the presence of ES until 10 dpf and levels of Cox1 in their mitochondrial extracts were measured.

CN(NC(=O)CC(=O)NN(C)C(=S)c1ccccc1)C(=S)c1ccccc1 [ES, elesclomol]
rescue of BCS-reduced respiratory growth (BY4741 WT cells): rescued
rescue of respiratory growth (yeast ccc2Δ): rescue
ES toxicity reflected in COX1 levels (control MEFs): reduced COX1 levels
toxicity in immortalized cell lines compared to primary cultures [1]: much more pronounced toxicity in immortalized cell lines
concentration at which ES toxicity occurs relative to the dose that rescued COX2 levels ([1]; immortalized fibroblasts, 36 hours): 20 ×
melanin pigmentation at 48 hpf ([2]; 10 nM ES from 3 hpf): all of the ES treated embryos from the same crosses were pigmented
rescue of the pigmentation defect ([2]; 100 nM ES or the equivalent dose of copper): rescue of the pigmentation defect
Cox1 levels in mitochondrial extracts (Ctr1^−/− zebrafish): almost completely rescued
